≈ marks a conversion by molar mass, not a printed value.

Format in all cases: functional
Holding throughout (conditions): time 18-20 hrs

The subject of assay [1] is Pseudomonas aeruginosa. The assay can be described thus: Antibacterial activity against Pseudomonas aeruginosa 27853 measured after 18 to 20 hrs by broth microdilution method. (In broth dilution the organism is exposed to a series of concentrations in liquid medium.)
The test system of assay [2] is Pseudomonas aeruginosa. The assay can be described thus: Antibacterial activity against Pseudomonas aeruginosa 1121 measured after 18 to 20 hrs by broth microdilution method.
The subject of assay [3] is Pseudomonas aeruginosa. The assay can be described thus: Antibacterial activity against Pseudomonas aeruginosa FB measured after 18 to 20 hrs by broth microdilution method.
Assay [4] has as its system Klebsiella pneumoniae. In words: Antibacterial activity against Klebsiella pneumoniae ATCC 700603 measured after 18 to 20 hrs by broth microdilution method.
The subject of assay [5] is Pseudomonas aeruginosa. The assay can be described thus: Antibacterial activity against Pseudomonas aeruginosa 27853 measured after 18 to 20 hrs in presence of FeIII cultured under CAA medium by broth microdilution method.
In assay [6] the test system is Klebsiella pneumoniae. In words: Antibacterial activity against Klebsiella pneumoniae ATCC 700603 measured after 18 to 20 hrs in presence of FeIII cultured under CAA medium by broth microdilution method.
Assay [7] relates to Escherichia coli. In words: Antibacterial activity against Escherichia coli ATCC 25922 measured after 18 to 20 hrs in presence of FeIII cultured under CAA medium by broth microdilution method.
The test system of assay [8] is Pseudomonas aeruginosa. The assay can be described thus: Antibacterial activity against Pseudomonas aeruginosa PAO1 measured after 18 to 20 hrs by broth microdilution method.
For assay [9], the system named is Pseudomonas aeruginosa. In words: Antibacterial activity against Pseudomonas aeruginosa PAO1 measured after 18 to 20 hrs in presence of FeIII cultured under CAA medium by broth microdilution method.
Assay [10] concerns Staphylococcus aureus. The assay can be described thus: Antibacterial activity against Staphylococcus aureus ATCC 25923 measured after 18 to 20 hrs by broth microdilution method.
The test system of assay [11] is Escherichia coli. In words: Antibacterial activity against Escherichia coli ATCC 25922 measured after 18 to 20 hrs by broth microdilution method.

`CC1(C)S[C@@H]2[C@H](NC(=O)[C@H](N)c3ccccc3)C(=O)N2[C@H]1C(=O)O` [AMPICILLIN]: the MIC in assay [1], in [2], in assay [3], in assay [4], in assay [5] and in [6] was greater than 250 µM throughout. Besides, the MIC in [7] is 3.9 µM; in assay [8] it was 125 µM (≈ 43.7 µg/mL); in [9], 62.5 µM; in [10], 0.24 µM (≈ 0.0839 µg/mL); in assay [11], 1.95 µM (≈ 0.681 µg/mL).

Take `CC(C)=CCc1c(OCCCCCC(=O)NCc2c(O)c(=O)cc(C)n2C)cc(/C=C/c2ccc(F)cc2)c(C(=O)O)c1O`: the MIC in assay [1], in [2], in [3], in [4], in [8] and in assay [10] was greater than 250 µM in each case. In assay [11], this compound displayed an MIC greater than 250 µM.

Turning to `CCn1cc(O)c(=O)cc1CNC(=O)CCCCCCOc1cc(/C=C/c2ccc(F)cc2)c(C(=O)O)c(O)c1CC=C(C)C`, the MIC in assay [1] was 31.2 µM (≈ 19.4 µg/mL); in assay [2] it was greater than 250 µM; in [3], greater than 250 µM; in assay [4] it was greater than 250 µM; in assay [8], 7.8 µM (≈ 4.84 µg/mL); in [10] it was greater than 250 µM. For the same compound, in assay [11], the minimal inhibitory concentration (MIC) is greater than 250 µM.

In the case of `CC(C)=CCc1c(OCCCCCCC(=O)NCc2c(O)c(=O)cc(C)n2C)cc(CSc2ccc(F)cc2)c(C(=O)O)c1O`, the MIC in [1], in assay [2], in assay [3], in assay [4], in [8] and in assay [10] was greater than 250 µM throughout. Moreover, the MIC in assay [11] is greater than 250 µM.

In the case of `CCCCCCC(=O)NCc1cc(=O)c(O)cn1C`, the MIC in assay [1], in assay [2], in [3], in assay [4], in [8] and in assay [10] was greater than 250 µM each time. For the same compound, the MIC in assay [11] was greater than 250 µM.

Take `CC(C)=CCc1c(OCc2cn(CCCn3cc(O)c(=O)cc3C)nn2)cc(/C=C/c2ccc(F)cc2)c(C(=O)O)c1O`: the MIC in assay [1] is 31.2 µM (≈ 18.4 µg/mL); in assay [2], greater than 250 µM; in [3], greater than 250 µM; in [4] it was greater than 250 µM; in assay [8] it was 31.2 µM (≈ 18.4 µg/mL); in [10] it was greater than 250 µM. This compound also had an MIC in [11] greater than 250 µM.

As to `CC(C)=CCc1c(OCCCCCC(=O)NCc2cc(=O)c(O)cn2C)cc(CSc2ccc(F)cc2)c(C(=O)O)c1O`, the MIC in assay [1], in [2], in [3], in [4], in assay [8] and in assay [10] was greater than 250 µM throughout. The compound also showed an MIC in assay [11] greater than 250 µM.

Take `CC(C)=CCc1c(OCc2cn(CCCCCCC(=O)NCc3cc(=O)c(O)cn3C)nn2)cc(/C=C/c2ccc(F)cc2)c(C(=O)O)c1O`: the MIC in assay [1] is greater than 250 µM; in assay [2], greater than 250 µM; in assay [3], greater than 250 µM; in assay [4] it was greater than 250 µM; in [8] it was 15.6 µM (≈ 10.7 µg/mL); in [10], greater than 250 µM. In assay [11], this compound returned a minimum inhibitory concentration (MIC) greater than 250 µM.

As for `CC(C)=CCc1c(OCc2cn(Cc3cc(=O)c(O)cn3C)nn2)cc(/C=C/c2ccc(F)cc2)c(C(=O)O)c1O`, the MIC in assay [1], in assay [2], in assay [3], in [4], in assay [8] and in assay [10] was greater than 250 µM each time. This compound had an MIC in assay [11] greater than 250 µM.

For `CC(C)=CCc1c(OCCCCC(=O)NCc2cc(=O)c(O)cn2C)cc(/C=C/c2ccc(F)cc2)c(C(=O)O)c1O`, the MIC in assay [1] was 31.2 µM (≈ 18.1 µg/mL); in assay [2] it was 31.2 µM (≈ 18.1 µg/mL); in assay [3], 31.2 µM (≈ 18.1 µg/mL); in [4], greater than 250 µM; in [8], 31.2 µM (≈ 18.1 µg/mL); in assay [10] it was greater than 250 µM. The compound also yielded an MIC in assay [11] greater than 250 µM.

Regarding `CC(C)=CCc1c(OCCCCCCC(=O)NCc2cc(=O)c(O)cn2C)cc(CSc2ccc(F)cc2)c(C(=O)O)c1O`, the MIC was greater than 250 µM in assay [1]; greater than 250 µM in assay [2]; greater than 250 µM in assay [3]; greater than 250 µM in [4]; 7.8 µM (≈ 4.89 µg/mL) in [8]; greater than 250 µM in assay [10]. The MIC in assay [11] is greater than 250 µM.

Regarding `CC(C)=CCc1c(OCCCCCC(=O)NCc2cc(=O)c(O)cn2C)cc(/C=C/c2ccc(F)cc2)c(C(=O)O)c1O`, the MIC in assay [1] was 31.2 µM (≈ 18.5 µg/mL); in assay [2], 31.2 µM (≈ 18.5 µg/mL); in [3] it was greater than 250 µM; in assay [4], greater than 250 µM; in assay [8], 31.2 µM (≈ 18.5 µg/mL); in assay [10] it was greater than 250 µM. This compound yielded an MIC in assay [11] greater than 250 µM.

With `CC(C)=CCc1c(OCCCCCCC(=O)NCc2c(O)c(=O)cc(C)n2C)cc(/C=C/c2ccc(F)cc2)c(C(=O)O)c1O`, the MIC was greater than 250 µM in assay [1]; greater than 250 µM in assay [2]; greater than 250 µM in assay [3]; greater than 250 µM in [4]; 7.81 µM (≈ 4.85 µg/mL) in [8]; greater than 250 µM in assay [10]. This compound also came in with an MIC in assay [11] greater than 250 µM.

`CCCCCCCC(=O)NCc1cc(=O)c(O)cn1C`: the MIC in assay [1], in assay [2], in assay [3], in [4], in assay [8] and in [10] was greater than 250 µM each time. This compound had an MIC in assay [11] greater than 250 µM.

As for `CCn1cc(C(=O)O)c(=O)c2cc(F)c(N3CCNCC3)cc21` [NORFLOXACIN], the MIC in assay [1] was 15.6 µM (≈ 4.98 µg/mL); in [2], 3.9 µM (≈ 1.25 µg/mL); in [3], 3.9 µM (≈ 1.25 µg/mL); in [4], 31.2 µM (≈ 9.98 µg/mL); in [5], 15.6 µM; in assay [6] it was 31.2 µM. Moreover, the MIC in [7] amounted to 0.49 µM; in assay [8] it was 1.95 µM (≈ 0.623 µg/mL); in assay [9], 1.95 µM; in assay [10], 7.8 µM (≈ 2.49 µg/mL); in assay [11], 0.49 µM (≈ 0.156 µg/mL).

Regarding `CC(C)=CCc1c(OCCCCCCCC(=O)NCc2c(O)c(=O)cc(C)n2C)cc(/C=C/c2ccc(F)cc2)c(C(=O)O)c1O`, the MIC in [1], in assay [2], in assay [3], in assay [4], in assay [8] and in assay [10] was greater than 250 µM throughout. The MIC in [11] was greater than 250 µM.

In the case of `CC(C)=CCc1c(OCCCCCCCC(=O)NCc2c(O)c(=O)cc(C)n2C)cc(CSc2ccc(F)cc2)c(C(=O)O)c1O`, the MIC in assay [1], in assay [2], in [3], in [4], in assay [8] and in assay [10] was greater than 250 µM in each case. The compound also yielded an MIC in assay [11] greater than 250 µM.

Regarding `CC(C)=CCc1c(OCc2cn(CCn3cc(O)c(=O)cc3C)nn2)cc(/C=C/c2ccc(F)cc2)c(C(=O)O)c1O`, the MIC was 62.5 µM (≈ 35.9 µg/mL) in [1]; 250 µM (≈ 144 µg/mL) in assay [2]; 250 µM (≈ 144 µg/mL) in [3]; greater than 250 µM in [4]; 125 µM (≈ 71.8 µg/mL) in assay [8]; greater than 250 µM in assay [10]. For the same compound, the MIC in assay [11] is greater than 250 µM.

As to `COc1cc(CSc2ccc(F)cc2)c(C(=O)O)c(O)c1CC=C(C)C`, the MIC was greater than 250 µM in assay [1]; greater than 250 µM in assay [2]; greater than 250 µM in [3]; greater than 250 µM in assay [4]; greater than 250 µM in assay [8]; 62.5 µM (≈ 23.5 µg/mL) in assay [10]. The same compound came in with an MIC in [11] greater than 250 µM.

With `CC(C)=CCc1c(OCCCCCC(=O)NCc2c(O)c(=O)cc(C)n2C)cc(CSc2ccc(F)cc2)c(C(=O)O)c1O`, the MIC in [1], in [2], in [3], in assay [4], in assay [8] and in assay [10] was greater than 250 µM throughout. In addition, in assay [11], the MIC was greater than 250 µM.

Regarding `CCCn1cc(O)c(=O)cc1CNC(=O)CCCCCCOc1cc(/C=C/c2ccc(F)cc2)c(C(=O)O)c(O)c1CC=C(C)C`, the MIC in assay [1] was 31.2 µM (≈ 19.8 µg/mL); in [2], greater than 250 µM; in assay [3], greater than 250 µM; in [4] it was greater than 250 µM; in [8] it was 7.8 µM (≈ 4.95 µg/mL); in assay [10], greater than 250 µM. This compound also came in with an MIC in [11] greater than 250 µM.

Turning to `CC(C)=CCc1c(OCCCCCCCC(=O)NCc2cc(=O)c(O)cn2C)cc(CSc2ccc(F)cc2)c(C(=O)O)c1O`, the MIC in [1], in assay [2], in assay [3], in assay [4], in assay [8] and in assay [10] was greater than 250 µM throughout. Besides, the MIC in assay [11] is greater than 250 µM.

What is called MIC is the least concentration at which growth counts as inhibited.

These data come from ChEMBL document CHEMBL5512647, “Cajaninstilbene acid derivatives conjugated with siderophores of 3-hydroxypyridin-4(1H)-ones as novel antibacterial agents against Gram-negative bacteria based on the Trojan horse strategy” (Eur J Med Chem, 2024).
